Assay results taken from PubChem BioAssay (NCI).
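A five-concentration, 48-hour dose response in 96-well plates underlies each endpoint, interpolated linearly between surrounding concentrations. GI50: concentration for 50% inhibition of growth. The concentration for full growth arrest is given as TGI.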

How the values were obtained:
Assay in all cases: NCI-60 cell line screen, 48 h
SK-MEL-5 melanoma = tested on: SK-MEL-5 melanoma
NCI-H23 lung = tested on: NCI-H23 lung
MDA-MB-435 = tested on: MDA-MB-435
U251 CNS = tested on: U251 CNS
CCRF-CEM leukemia = tested on: CCRF-CEM leukemia
ACHN renal = tested on: ACHN renal
UACC-257 melanoma = tested on: UACC-257 melanoma
M14 melanoma = tested on: M14 melanoma

Compound	TGI (SK-MEL-5 melanoma) [µM]	TGI (NCI-H23 lung) [µM]	TGI (MDA-MB-435) [µM]	TGI (U251 CNS) [µM]	TGI (CCRF-CEM leukemia) [µM]	TGI (ACHN renal) [µM]	TGI (UACC-257 melanoma) [µM]	TGI (M14 melanoma) [µM]	GI50 (SK-MEL-5 melanoma) [µM]	GI50 (NCI-H23 lung) [µM]	GI50 (MDA-MB-435) [µM]	GI50 (ACHN renal) [µM]	GI50 (UACC-257 melanoma) [µM]	GI50 (M14 melanoma) [µM]
C[C@@H]1CC[C@@]2(C)C(C(=O)O)=CCCC2[C@@]1(C)CC(=O)c1ccoc1 (some centres not stated)	> 25	> 25	> 25	> 25	> 25	> 25	> 25	> 25						
N#Cc1c(-c2ccc([N+](=O)[O-])cc2)cc(-c2ccc(Nc3ccnc4cc(Cl)ccc34)cc2)[nH]c1=O		> 100	> 100	> 100		> 100		> 100						
CCc1c(O)cc(=O)oc1-c1ccc(OC)c(OC)c1	> 100	> 100	> 100	> 100	> 100	> 100	> 100	> 100						
COc1ccc2nc(NC(=O)/C(C#N)=C/c3ccccc3)sc2c1	> 73.6	> 100	> 100	> 100	59.7	> 100	> 100	> 100						
O=C(/C=C/c1ccc(Cl)cc1)Oc1ccc(C=C2CCC/C(=C\c3ccc(OC(=O)/C=C/c4ccc(Cl)cc4)cc3)C2=O)cc1	> 100	> 100	> 100	> 100		> 100	> 100	> 100						
O=C(c1ccco1)N(C(=O)N1CCCCC1)c1ccccc1	> 100	> 100	> 100	> 100	> 100	> 100	> 100	> 100						
O=C(NCc1ccccc1)c1cc2ccccc2oc1=Nc1cccc(C(F)(F)F)c1	70.8	> 100	> 100	> 100	> 100	> 100	84	> 100						
CC1=CC2C3(C)C(C)(C(C)=CP3(=O)c3c(C(C)C)cc(C(C)C)cc3C(C)C)C1P2(=O)c1c(C(C)C)cc(C(C)C)cc1C(C)C (configuration not stated)	3	4.09	5.33	6.59	7.44	8.96	3.34	4.21						
COCOc1ccc(C(=O)Oc2cccc3c2OC(C)(C)O3)c(OCOC)c1	> 100	26.3	> 100	> 100	> 100	> 100	> 100	> 100						
O=C(ON=C1c2ccccc2C(Br)C(Br)c2ccccc21)c1ccccc1 (configuration not stated)	31.7	37.8	34.9	31.6	2.05	33	41.7	32.6						
OCc1ccc2c(c1)CC1(C2)Cc2cc3c(cc2C1O)CCC3 (configuration not stated)	12	25.7	2.99	20.6	> 44.9	41.3	12.6	13						
NC1=CC(=O)c2c(O)ccc(O)c2C1=O	20.3	27.9	31.6	33.9	11.4	34.2	30.2	22.3						
O=C(/C=C/c1ccc(O)c(O)c1)OCCc1ccc2ccccc2c1	13.2	14.7	6.63	23.8	23.8	15.1	23.3	16.9						
CN(CCN1CCCC1)C1CCc2cc(Cl)c(Cl)cc2C1 (configuration not stated)	24.8	30.1	37.5	32.6	> 100	30.5	32.4	31.5						
Cc1nc(N)c(N2CCN(C#N)CC2)c(=O)[nH]1		> 100	> 100	> 100	> 100	> 100	> 100	> 100						
CCCCI(O)OS(=O)(=O)c1ccc(C)cc1	> 100	> 100	> 100	> 100	76.3	> 100	> 100	> 100						
c1c[nH]c(-c2cccc3nsnc23)c1	> 100	> 100	> 100	> 100	> 100	> 100	> 100	> 100						
O=C(CCc1cc(O)cc(O)c1)NCCc1cc(OCc2ccccc2)cc(OCc2ccccc2)c1	25.6	24.6	37.6	> 100	50.8	15.6	70	34.8						
Nc1ncnc2c1nnn2C1C=CC(CP(=O)(O)O)C1 (configuration not stated)	> 100	> 100		> 100		> 100	> 100	> 100						
Cc1ccc(-c2cc(-c3ccco3)c(C#N)c(=S)[nH]2)cc1	61.9	97.8	65.1	62.9	> 100	> 100		> 100						
COc1ccc(C)cc1N1C(=O)C2ON(Cc3ccc(CC(N)=O)cc3)C(c3c4ccccc4c(Cl)c4ccccc34)C2C1=O (configuration not stated)		96.4	62.1	60.4	> 100	75	33.2	38.8						
CC(=O)O[C@@H](c1nccn1Cc1ccccc1)[C@H]1OC(C)(C)O[C@@H]1[C@H]1COC(C)(C)O1	> 100	> 100	> 100	> 100	> 100	> 100	> 100							
COC(=O)/C=C(\C)CC/C=C(\C)CCC1OC1(C)C (configuration not stated)	22.4	24.2		22.5	21.3	23.3	23.3	22.9						
NS(=O)(=O)c1nnc(NC(=O)N(c2ccccc2)c2ccccc2)s1	67	58.9	68.8	> 100	> 100		> 100	35.3						
CCCCCCCCCCCCCCCCCCOc1ccccc1CC(=O)NCC[N+]1(C)CCOCC1	16.1	14.2	32.9			44.6	35.3	> 100	3	3.03	7.85	16	18.9	4.32
